The results in this text go back to patent publication US8664220B2, “Polycyclic compounds as lysophosphatidic acid receptor antagonists” (Amira Pharmaceuticals, Inc., priority 2009, dated 2014).

This test addresses T1, human LPA1 (Homo sapiens, UniProt Q92633).
T1 construct: the full-length cDNA for human LPA1 was obtained by PCR of the reverse transcription reaction; expressed in transfected cells
The test is described as follows: LPA1 calcium flux assay. Format: cell-based. The settings on record: human LPA1 expressing CHO cells, stimulated with 10 nM LPA; read-out: HLPA1 Ca Flux IC50. The procedure, abridged: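 CHO cells stably expressing human LPA1, serum-starved overnight and loaded with Calcium 4 dye in HBSS/20 mM Hepes/0.3% fatty-acid-free HSA, 1 h at 37 °C. Compounds pre-incubated 30 min at room temperature, then 10 nM LPA added; intracellular Ca2+ flux measured and IC50 from titration curves.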
On the technique in general: A change in cytosolic calcium serves as a functional read-out for many receptors and channels.

By IC50 is commonly meant the concentration that inhibits the measured activity by half.

T1 sequence (Q92633 whole entry): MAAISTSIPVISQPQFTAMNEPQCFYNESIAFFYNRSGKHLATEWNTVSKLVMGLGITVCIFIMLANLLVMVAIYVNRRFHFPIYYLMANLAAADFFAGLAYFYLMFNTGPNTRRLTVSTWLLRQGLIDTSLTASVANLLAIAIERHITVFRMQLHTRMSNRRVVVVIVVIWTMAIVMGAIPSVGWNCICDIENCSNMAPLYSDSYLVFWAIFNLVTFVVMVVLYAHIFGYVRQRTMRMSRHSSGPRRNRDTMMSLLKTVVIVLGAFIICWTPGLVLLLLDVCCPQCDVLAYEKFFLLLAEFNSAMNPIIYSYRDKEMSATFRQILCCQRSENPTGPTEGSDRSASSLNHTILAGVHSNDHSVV

As for `Cc1noc(-c2ccc(-c3ccc(C4(C(=O)O)CC4)cc3)cc2)c1NC(=O)c1cccc(-c2ccccc2CN(C)C)c1` [Compound 1-121, 1-(4′-{4-[(2′-Dimethylaminomethyl-biphenyl-3-carbonyl)-amino]-3-methyl-isoxazol-5-yl}-biphenyl-4-yl)-cyclopropanecarboxylic acid], the IC50 is greater than 50 µM. The figure for `Cc1noc(-c2ccc(-c3ccc(C4(C(=O)O)CC4)cc3)cc2)c1Nc1cccc(-c2cccc(Cl)c2Cl)n1` [Compound 1-158, 1-(4′-{4-[6-(2,3-Dichloro-phenyl)-pyridin-2-ylamino]-3-methyl-isoxazol-5-yl}-biphenyl-4-yl)-cyclopropanecarboxylic acid] is less than 0.3 µM. With `Cc1noc(-c2ccc(-c3ccc(C4(C(=O)O)CC4)cc3)cc2)c1C(O)c1cccc(-c2ccccc2)n1` (centres unmarked) [Compound 1-110, 1-(4′-{4-[Hydroxy-(6-phenyl-pyridin-2-yl)-methyl]-3-methyl-isoxazol-5-yl}-biphenyl-4-yl)-cyclopropanecarboxylic acid] the figure was less than 0.3 µM.

`Cc1noc(-c2ccc(-c3ccc(C4(C(=O)O)CC4)cc3)cc2)c1C(O)c1nnc(Cc2ccccc2)o1` (single isomer, unassigned) [Compound 1-35, 1-(4′-{4-[(5-Benzyl-[1,3,4]oxadiazol-2-yl)-hydroxy-methyl]-3-methyl-isoxazol-5-yl}-biphenyl-4-yl)-cyclopropanecarboxylic acid]: the half-inhibitory concentration (IC50) is less than 0.3 µM.

In the case of `Cc1noc(-c2ccc(-c3ccc(C4(C(=O)O)CC4)cc3)cc2)c1Nc1cccc(-c2cccc(C(N)=O)c2)n1` [Compound 1-144, 1-(4′-{4-[6-(3-Carbamoyl-phenyl)-pyridin-2-ylamino]-3-methyl-isoxazol-5-yl}-biphenyl-4-yl)-cyclopropanecarboxylic acid], the half-maximal inhibitory concentration (IC50) is less than 0.3 µM.

Regarding `Cc1noc(-c2ccc(-c3ccc(C4(C(=O)O)CC4)cc3)cc2)c1Cn1ccc(-c2ccc(Br)cc2)n1` [Compound 1-13, 1-(4′-{4-[3-(4-Bromo-phenyl)-pyrazol-1-ylmethyl]-3-methyl-isoxazol-5-yl}-biphenyl-4-yl)-cyclopropanecarboxylic acid], the IC50 is 1 to 50 µM. The figure for `Cc1noc(-c2ccc(-c3ccc(C4(C(=O)O)CC4)cc3)cc2)c1C1CC1C(=O)N(C)[C@H](C)c1ccccc1` (single isomer, unassigned) [Compound 1-26] is 0.3 to 1 µM. The figure for `Cc1noc(-c2ccc(-c3ccc(C4(CC(=O)O)CC4)cc3)cc2)c1C(O)c1nnc(-c2ccccc2)o1` (centres unmarked) [Compound 1-39, [1-(4′-{4-[Hydroxy-(5-phenyl-[1,3,4]oxadiazol-2-yl)-methyl]-3-methyl-isoxazol-5-yl}-biphenyl-4-yl)-cyclopropyl]-acetic acid] is less than 0.3 µM; for `Cc1ccccc1Cn1cc(C(O)c2c(C)noc2-c2ccc(-c3ccc(C4(C(=O)O)CC4)cc3)cc2)nn1` (centres unmarked) [Compound 1-70, 1-[4′-(4-{Hydroxy-[1-(2-methyl-benzyl)-1H-[1,2,3]triazol-4-yl]-methyl}-3-methyl-isoxazol-5-yl)-biphenyl-4-yl]-cyclopropanecarboxylic acid] it is less than 0.3 µM.

Take `Cc1noc(-c2ccc(-c3ccc(C4(C(=O)O)CC4)cc3)cc2)c1CN1CC(c2ccccc2)OC1=O` (centres unmarked) [Compound 1-22, 1-{4′-[3-Methyl-4-(2-oxo-5-phenyl-oxazolidin-3-ylmethyl)-isoxazol-5-yl]-biphenyl-4-yl}-cyclopropanecarboxylic acid]: the IC50 was less than 0.3 µM. For the compound `Cc1noc(-c2ccc(-c3ccc(C4(C(=O)O)CC4)cc3)cc2)c1CN1CCC(c2ccccc2)C1` (centres unmarked) [Compound 1-17, 1-{4′-[3-Methyl-4-(3-phenyl-pyrrolidin-1-ylmethyl)-isoxazol-5-yl]-biphenyl-4-yl}-cyclopropanecarboxylic acid], the 50% inhibitory concentration (IC50) was less than 0.3 µM. The figure for `Cc1noc(-c2ccc(-c3ccc(C4(C(=O)O)CC4)cc3)cc2)c1Nc1cccc(-c2ccccc2)c1` [Compound 1-74, 1-{4′-[4-(Biphenyl-3-ylamino)-3-methyl-isoxazol-5-yl]-biphenyl-4-yl}-cyclopropanecarboxylic acid] is less than 0.3 µM; for `Cc1noc(-c2ccc(-c3ccc(C4(C(=O)O)CC4)cc3)cc2)c1Nc1cccc(Cc2ccccc2)c1` [Compound 1-90, 1-{4′-[4-(3-Benzyl-phenylamino)-3-methyl-isoxazol-5-yl]-biphenyl-4-yl}-cyclopropanecarboxylic acid] it is less than 0.3 µM; for `Cc1noc(-c2ccc(-c3ccc(C4(C(=O)O)CC4)cc3)cc2)c1Nc1cccc(N2CCOCC2)n1` [Compound 1-124, 1-{4′-[3-Methyl-4-(6-morpholin-4-yl-pyridin-2-ylamino)-isoxazol-5-yl]-biphenyl-4-yl}-cyclopropanecarboxylic acid] it is less than 0.3 µM. With `Cc1noc(-c2ccc(-c3ccc(C4(C(=O)O)CC4)cc3)cc2)c1Cc1nnc(-c2ccccc2)o1` [Compound 1-8, 1-{4′-[3-Methyl-4-(5-phenyl[1,3,4]oxadiazol-2-ylmethyl)-isoxazol-5-yl]-biphenyl-4-yl}-cyclopropanecarboxylic acid] the figure was less than 0.3 µM; with `Cc1noc(-c2ccc(-c3ccc(C4(C(=O)O)CC4)cc3)cc2)c1C(O)c1cn(Cc2c(Cl)cccc2Cl)nn1` (centres unmarked) [Compound 1-72, 1-[4′-(4-{[1-(2,6-Dichloro-benzyl)-1H-[1,2,3]triazol-4-yl]-hydroxy-methyl}-3-methyl-isoxazol-5-yl)-biphenyl-4-yl]-cyclopropanecarboxylic acid], 0.3 to 1 µM. With `Cc1noc(-c2ccc(-c3ccc(C4(C(=O)O)CC4)cc3)cc2)c1Cn1nncc1-c1ccccc1` [Compound 1-20, 1-{4′-[3-Methyl-4-(5-phenyl-[1,2,3]triazol-1-ylmethyl)-isoxazol-5-yl]-biphenyl-4-yl}-cyclopropanecarboxylic acid] the figure was 0.3 to 1 µM.

As for `Cc1noc(-c2ccc(-c3ccc(C4(C(=O)O)CC4)cc3)cc2)c1Cc1cn(Cc2ccccc2)nn1` [Compound 1-31, 1-{4′-[4-(1-Benzyl-1H-[1,2,3]triazol-4-ylmethyl)-3-methyl-isoxazol-5-yl]-biphenyl-4-yl}-cyclopropanecarboxylic acid], the IC50 is less than 0.3 µM. The figure for `Cc1noc(-c2ccc(-c3ccc(C4(C(=O)O)CC4)cc3)cc2)c1Nc1cccc(-c2cc(F)cc(Cl)c2)n1` [Compound 1-147, 1-(4′-{4-[6-(3-Chloro-5-fluoro-phenyl)-pyridin-2-ylamino]-3-methyl-isoxazol-5-yl}-biphenyl-4-yl)-cyclopropanecarboxylic acid] is less than 0.3 µM; for `Cc1noc(-c2ccc(-c3ccc(C4(C(=O)O)CC4)cc3)cc2)c1Nc1cccc(Oc2ccccc2)c1` [Compound 1-82, 1-{4′-[3-Methyl-4-(3-phenoxy-phenylamino)-isoxazol-5-yl]-biphenyl-4-yl}-cyclopropanecarboxylic acid] it is less than 0.3 µM. With `Cc1noc(-c2ccc(-c3ccc(C4(C(=O)O)CC4)cc3)cc2)c1C(O)c1cn(Cc2ccccc2)nn1` (single isomer, unassigned) [Compound 1-40, 1-(4′-{4-[(1-Benzyl-1H-[1,2,3]triazol-4-yl)-hydroxy-methyl]-3-methyl-isoxazol-5-yl}-biphenyl-4-yl)-cyclopropanecarboxylic acid] the figure was less than 0.3 µM; with `Cc1noc(-c2ccc(-c3ccc(C4(C(=O)O)CC4)cc3)cc2)c1[C@@H](O)c1cn([C@H](C)c2ccccc2)nn1` [Compound 1-67, 1-[4′-(4-{(R)-Hydroxy-[1-((R)-1-phenyl-ethyl)-1H-[1,2,3]triazol-4-yl]-methyl}-3-methyl-isoxazol-5-yl)-biphenyl-4-yl]-cyclopropanecarboxylic acid], less than 0.3 µM; with `Cc1noc(-c2ccc(-c3ccc(C4(C(=O)O)CC4)cc3)cc2)c1Nc1cccc(OCCc2ccccc2)n1` [Compound 1-141, 1-{4′-[3-Methyl-4-(6-phenethyloxy-pyridin-2-ylamino)-isoxazol-5-yl]-biphenyl-4-yl}-cyclopropanecarboxylic acid], less than 0.3 µM. The figure for `Cc1noc(-c2ccc(-c3ccc(C4(C(=O)O)CC4)cc3)cc2)c1Nc1cncc(-c2cccc(C(F)(F)F)c2)c1` [Compound 1-118, 1-(4′-{3-Methyl-4-[5-(3-trifluoromethyl-phenyl)-pyridin-3-ylamino]-isoxazol-5-yl}-biphenyl-4-yl)-cyclopropanecarboxylic acid] is less than 0.3 µM; for `Cc1noc(-c2ccc(-c3ccc(C4(C(=O)O)CC4)cc3)cc2)c1Nc1ccnc(-c2ccccc2Cl)c1` [Compound 1-114, 1-(4′-{4-[2-(2-Chloro-phenyl)-pyridin-4-ylamino]-3-methyl-isoxazol-5-yl}-biphenyl-4-yl)-cyclopropanecarboxylic acid] it is less than 0.3 µM; for `Cc1noc(-c2ccc(-c3ccc(C4(C(=O)O)CC4)cc3)cc2)c1Nc1cccc(-n2cccn2)n1` [Compound 1-123, 1-{4′-[3-Methyl-4-(6-pyrazol-1-yl-pyridin-2-ylamino)-isoxazol-5-yl]-biphenyl-4-yl}-cyclopropanecarboxylic acid] it is less than 0.3 µM. Consider `Cc1noc(-c2ccc(-c3ccc(C4(C(=O)O)CC4)cc3)cc2)c1C(O)c1ccc(OCc2ccccc2)cc1` (centres unmarked) [Compound 1-54, 1-(4′-{4-[(4-Benzyloxy-phenyl)-hydroxy-methyl]-3-methyl-isoxazol-5-yl}-biphenyl-4-yl)-cyclopropanecarboxylic acid], for which the IC50 was 1 to 50 µM.

On to `Cc1noc(-c2ccc(-c3ccc(C4(C(=O)O)CC4)cc3)cc2)c1CN1CC(c2ccccc2)CC1=O` (centres unmarked) [Compound 1-7, 1-{4′-[3-Methyl-4-(2-oxo-4-phenyl-pyrrolidin-1-ylmethyl)-isoxazol-5-yl]-biphenyl-4-yl}-cyclopropanecarboxylic acid], for which the half-inhibitory concentration (IC50) is less than 0.3 µM.

In the case of `Cc1noc(-c2ccc(-c3ccc(C4(C(=O)O)CC4)cc3)cc2)c1Nc1cccc(-c2ccncc2)n1` [Compound 1-99, 1-{4′-[4-([2,4′]Bipyridinyl-6-ylamino)-3-methyl-isoxazol-5-yl]-biphenyl-4-yl}-cyclopropanecarboxylic acid], the IC50 is less than 0.3 µM.
